Reference: US5945430A, “Aminooxyamide tricyclic inhibitors of farnesyl-protein transferase” (Schering Corporation, priority 1998, dated 1999)

Tests used:
[1] = target: T1, H-ras FPT (Ras-CVLS farnesylation by partially purified rat brain farnesyl protein transferase (FPT)) (Rattus norvegicus, UniProt Q02293+Q04631); assay: FPT IC50 (inhibition of farnesyl protein transferase, in vitro enzyme assay); assay type: biochemical
T1 construct: partially purified rat brain farnesyl protein transferase (FPT); from tissue; host or cells: rat brain, partially purified

[2] = system: Ras processing in COS cells; assay: COS IC50, cell-based assay: COS cells activity inhibition of Ras processing
Procedure: 2. Cell-based assay. COS IC50 values refer to the COS cells activity inhibition of Ras processing, are determined by the methods disclosed in […] or WO 95/10516.

Row | SMILES | IC50 [1] [µM] | IC50 [2] [µM]
1 | O=C(NOCC(=O)N1CCC([C@H]2c3ncc(Br)cc3CCc3cc(Cl)cc(Br)c32)CC1)c1ccccc1 [Example 1] | 0.027 | 
2 | O=C(CO/N=C/c1cc[n+]([O-])cc1)N1CCC([C@H]2c3ncc(Br)cc3CCc3cc(Cl)cc(Br)c32)CC1 [Example 6] |  | 0.69
3 | NOCC(=O)N1CCC([C@H]2c3ncc(Br)cc3CCc3cc(Cl)cc(Br)c32)CC1 [Example 15, (+)-1-[(aminooxy)acetyl]-4-(3,10-dibromo-8-chloro-6,11-dihydro-5H-benzo[5,6]cyclohepta[1,2-b]pyridin-11(R)-yl)piperidine] | 0.032 | 
